The test system of one assay is CII-primed T cells. The assay is described as follows: T cell stimulation assay, γ-IFN production by CII-primed spleen and lymph node cells. The format is cell-based, mice. To be noted: CII-primed T cells cultured with 100 μm of antigen; FIG. 1. Here is the method:
Nowarck H., E. Hahn, R. Timple, 1976, “Requirements for T Cells in the Antibody Response of Mice to Calf Skin Collagen,” J. Immunol. 30:29. Each peptide was cultured with pooled spleen and lymph node cells from CII-immunized mice, and culture supernatant fluids were tested for the presence of γ-interferon as an indicator of T cell stimulation. T cell hybridomas were established by polyethylene glycol-induced fusion of lymph node cells with the T cell receptor α^−/β^−thymoma line, BW5147. White, M., M. Blackman, J. Bill, J. Kappler, P. Marrack, D. P. Gold, and W. Born, 1989, Two Better Cell Lines for Making Hybridomas Expressing Specific T Cell Receptors. J. Immunol. 143:1822. […]
T cell stimulation assays were performed in 96 well plates and the degree of stimulation was quantitated by measurements of γ-IFN production. […] Supernatants were collected from 72 to 120 hours later and either […] analyzed for γ-IFN production immediately or stored at −70° C. prior to analysis. Quantitative measurement of murine gamma interferon was done using a solid-phase enzyme-linked immunosorbent assay (Amgen Biologicals, Thousand Oaks, Calif.). […] The absorbance was measured at 405 nm with a spectrophotometer, and a standard curve was obtained by plotting the absorbance versus the corresponding concentration of the standards. Units of γ-interferon were calculated based on NIH standard number Gg02-901-533. […]

In assay [1] the test system is collagen induced arthritis (CIA) in DBA/1 mice. The assay is described as follows: Collagen induced arthritis, simultaneous immunization with CII and peptide. The format is in vivo.
The next assay concerns antibodies to CII. Put plainly: Serum antibodies to CII by ELISA in neonatally treated mice. To be noted: 100 μg antigen in IFA intraperitoneally within 24 hours of birth; serum four weeks after immunization; mean titer. The format is in vivo. Here is the method:
Mice were bled at four weeks after immunization and the serum was tested for antibodies reactive with type II collagen by enzyme-linked immunoassay (ELISA) described in Stuart, J. M., A. S. Townes, and A. H. Kang. 1982. Nature and Specificity of the Immune Response to Collagen in Type II Collagen-Induced Arthritis in Mice, J. Clin. Invest. 69:673. The disclosure of this article is incorporated by reference An anti-CII serum standard was used in each assay. A standard curve was derived by computer analysis using a 4 parameter logistic curve. Results are reported as units of activity, derived by comparison of test sera with the curve derived from the anti-CII standard which was arbitrarily defined as having 50 units of activity. Sera from mice were tested individually, and means were calculated for each experimental group.
The foregoing data support the hypothesis that analog peptide CII 245-270[s260, 261, 263] competes for binding to I-A^q. […] Synthetic peptides were solubilized directly in phosphate buffered saline (PBS) at a concentration of 1 mg/ml. Neonatal mice were tolerized using a protocol described by Gammon et al.^21 in which antigen emulsified with incomplete Freund's adjuvant was injected intraperitoneally. Gammon, Dunn, Shastri, Oki, Wilbur, Sercarz, 1986, Neonatal T Cell Tolerance to Minimal Immunogenic Peptides is Caused by Clonal Inactivation, Nature (Lond) 319:413. […]
(ELISA stands for enzyme-linked immunosorbent assay.)

In the case of “Pro - Thr - Gly - Pro - Leu - Gly - Pro - Lys - Gly - Gln - Thr - Gly - Glx - Leu - Gly - Ala - 4Hyp - Gly - Asn - Lys - Gly - Glx - Gln - Gly - Pro - Lys [CII 245-270 [s260, 261, 263], analog of CII 245-270 with alanine at 260, hydroxyproline at 261, asparagine at 263]”, the “T cell stimulation (γ-interferon) compared to the wild type peptide CII 245-270” value in the assay on CII-primed T cells is reported as “did not respond”. In addition, in assay [1] (co-immunized with CII at various molar ratios), the “Incidence of arthritis and number of arthritic limbs, in words” value was “dose-dependent decrease”. Further, in assay [1] (co-injected with native CII, molar ratio CII:peptide 1:480), the “Development / incidence of arthritis, in words” value is on record as “arthritis did not develop”. Further, in the assay with antibodies to CII, the “Antibodies to CII” value is 55.6 ± 19.

The values are drawn from patent publication US20020037844A1, “SYNTHETIC PEPTIDE FOR TREATMENT OF AUTOIMMUNE ARTHRITIS” (priority 1993, published 2002).
